Where “and” joins values, the source holds several entries; their conditions need not be identical. Equal entries are not always repeated.

The target in assay [1] is T1, rEOPA (recombinant endooligopeptidase A) (Homo sapiens, UniProt Q9GZM8).
T1 construct: poly-histidine tag or anchor protein (e.g. GST) (N, cleaved yes); made in house; host or cells: Escherichia coli (DH5alpha, BL21(DE3) or similar), vector e.g. pProEx-HTc
T1 sequence (Q9GZM8 1-345): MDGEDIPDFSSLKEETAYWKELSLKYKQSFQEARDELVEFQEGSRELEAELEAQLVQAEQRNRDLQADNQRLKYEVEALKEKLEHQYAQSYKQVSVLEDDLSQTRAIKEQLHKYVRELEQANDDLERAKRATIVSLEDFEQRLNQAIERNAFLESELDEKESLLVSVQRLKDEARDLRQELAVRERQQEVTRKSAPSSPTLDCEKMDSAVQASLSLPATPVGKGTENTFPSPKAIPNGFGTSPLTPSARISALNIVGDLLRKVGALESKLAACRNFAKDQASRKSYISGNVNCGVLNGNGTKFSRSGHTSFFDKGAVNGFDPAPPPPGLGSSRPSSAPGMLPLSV
The following applies: state of the art; cited from earlier work.

Assay [2] concerns the target T1, rEOPA (recombinant endooligopeptidase A). Kind of assay: Inhibition of the catalytic activity of recombinant EOPA (kinetic assay, quenched fluorescence peptide substrate or HPLC). The assay is classed as biochemical. The following applies: for Ki: rEOPA. The text has this:
Polyclonal antibodies were generated in rats, mice and rabbits, using the purified natural EOPA or the active recombinant EOPA, expressed in bacteria, specifically in Escherichia coli, for the immunization. Male Balb-C mice, 7 to 8 weeks old, and weighing between 18 and 22 g were immunized with purified natural human EOPA, or catalytically active recombinant enzyme. For each of the four immunizations, 2.mμ.g of the purified protein or 3.mμ.g of the recombinant protein, absorbed on aluminum hydroxide [Al(OH)3] were injected intradermically, in weekly intervals. Blood samples were collected one week after the last immunization, and the serum was stored at −20° C. The antiserum titer was evaluated by ELISA, using the appropriate antigen. The anti-catalytic activity of the obtained antiserum was evaluated by HPLC or fluorimetrically, using the quenched fluorescent peptides substrates. Before use, the antiserum was pre-heated at 55° C., for 5 minutes, in order to eliminate any contaminating peptidase activity. […] Using this antibody, it was possible to discriminate the activity of the EOPA from functionally similar, but not homologous enzymes, such as the TOP and the NL, which are also present in animal tissues and cells lineages.
Kinetic assays using natural peptide substrates like bradykinin, neurotensin and opioid peptides, composed by 9 to 13 amino acid residues, were essential for the discovery and characterization of the EOPA in our laboratory (see the summary of this literature in Camargo et al., 1994). Since 1990, we have developed peptide substrates derived from natural substrates with quenched fluorescence, standardizing the characterization of this enzyme, simplifying and reducing the costs, and making the characterization of the kinetic properties of the EOPA more reliable (Juliano et al., 1990). The peptide substrates with quenched fluorescence (qf) used have the radical Abz (ortho-aminobenzoic acid) at the amino terminus of the peptide, and the EDDnp [N-(2,4-dinitrophenyl)ethylenediamine] at the carboxyl terminus of the peptide. […]

In a further assay the target is neurolysin (NL) (Homo sapiens, UniProt Q9BYT8). The assay can be described thus: Inhibition of neurolysin. The assay is classed as biochemical.
Chain of neurolysin (NL) (Q9BYT8 38-704): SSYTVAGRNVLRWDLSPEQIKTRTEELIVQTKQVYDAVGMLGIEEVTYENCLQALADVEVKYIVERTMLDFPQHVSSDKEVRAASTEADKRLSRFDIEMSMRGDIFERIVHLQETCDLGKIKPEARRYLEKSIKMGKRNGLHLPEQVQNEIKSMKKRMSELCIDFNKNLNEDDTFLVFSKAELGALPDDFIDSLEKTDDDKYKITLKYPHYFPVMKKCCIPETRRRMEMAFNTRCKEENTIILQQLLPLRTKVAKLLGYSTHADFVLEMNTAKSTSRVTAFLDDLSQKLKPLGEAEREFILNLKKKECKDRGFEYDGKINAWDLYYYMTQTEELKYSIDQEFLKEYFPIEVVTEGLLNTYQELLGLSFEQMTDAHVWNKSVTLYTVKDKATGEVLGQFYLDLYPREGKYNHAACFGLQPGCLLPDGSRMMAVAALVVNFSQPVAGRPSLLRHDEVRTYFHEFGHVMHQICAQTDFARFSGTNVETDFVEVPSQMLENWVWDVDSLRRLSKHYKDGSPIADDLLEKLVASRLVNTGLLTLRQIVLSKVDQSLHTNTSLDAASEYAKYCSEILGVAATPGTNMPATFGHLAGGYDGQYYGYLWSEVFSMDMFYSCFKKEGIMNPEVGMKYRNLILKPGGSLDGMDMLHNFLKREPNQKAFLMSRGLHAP
Assay [3] concerns neuronal precursor cells from embryonic stem cells (USP-1 lineage). The assay can be described thus: Treatment of neuronal precursor cells differentiated from embryonic stem cells with EOPA inhibitor. The assay is classed as cell-based. The following applies: neuronal precursor cells treated with the inhibitor. The protocol:
The undifferentiated embryonic stem cells (USP-1 lineage) were cultured in medium containing: DMEM, supplemented with 15% of bovine fetal serum, […] of penicillin/streptomycin and 2 mM of L-glutamine, 1% of non-essential amino acids, 10^−4 M of monothioglicerol, and LIF (Leukemia Inhibitory Factor), in a final concentration of 1,000 units/ml. All the undifferentiated stem cells culture was maintained over a primary culture of previously irradiated murine fibroblasts (Neo Mef2). The differentiation was done after the formation of the embryoid bodies, where 750 cells were maintained in 20 μl of the culture medium drops over a Petri dish, during four days at 37° C., under 5% carbonic gas (during this period the cells form the cellular aggregates known as embryoid bodies). […] After completing the differentiation of the stem cells, the differentiated cells were counted and photographed using a confocal microscopy. A population of cells differentiated into neurons was obtained following the protocol described above, and the influence of the inhibition of the EOPA catalytic activity during the differentiation and maturation process of these neurons was analyzed after the treatment of these cells with the inhibitor JA2.

Assay [4] has as its target thimet oligopeptidase (TOP) (Homo sapiens, UniProt P52888). The following applies: cited from earlier work.

Chain of thimet oligopeptidase (TOP) (P52888 whole entry, species assumed): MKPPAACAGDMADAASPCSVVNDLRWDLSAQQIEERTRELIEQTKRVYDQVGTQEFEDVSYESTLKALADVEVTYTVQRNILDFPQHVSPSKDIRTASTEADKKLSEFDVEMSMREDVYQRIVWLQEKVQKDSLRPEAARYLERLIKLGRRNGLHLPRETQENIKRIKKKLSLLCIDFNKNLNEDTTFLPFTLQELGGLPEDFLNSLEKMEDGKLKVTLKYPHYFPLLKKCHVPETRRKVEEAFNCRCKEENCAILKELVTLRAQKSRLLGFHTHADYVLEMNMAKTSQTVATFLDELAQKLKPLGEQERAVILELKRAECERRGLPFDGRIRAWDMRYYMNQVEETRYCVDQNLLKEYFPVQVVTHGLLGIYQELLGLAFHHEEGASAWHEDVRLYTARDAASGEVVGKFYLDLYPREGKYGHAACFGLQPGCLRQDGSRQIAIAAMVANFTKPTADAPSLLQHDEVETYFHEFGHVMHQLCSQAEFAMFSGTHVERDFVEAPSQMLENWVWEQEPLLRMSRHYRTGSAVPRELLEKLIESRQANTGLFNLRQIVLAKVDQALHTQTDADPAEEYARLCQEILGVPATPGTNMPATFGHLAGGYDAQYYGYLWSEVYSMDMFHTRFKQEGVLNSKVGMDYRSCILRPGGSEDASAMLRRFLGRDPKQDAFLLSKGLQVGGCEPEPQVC

With `O[C@H](CS)[C@H](O)CS` (racemic) [dithiothreitol (DTT), dithiothreitol], the “effect of thiol agents on EOPA activity (kinetic assays)” value (from here on “effect of thiol agents on EOPA activity”) in assay [1] is “activated”.
As for `O=C(O)c1cc(SSc2ccc([N+](=O)[O-])c(C(=O)O)c2)ccc1[N+](=O)[O-]` [5′-dithio-bis-(2-nitrobenzoic acid)], the “effect of thiol agents on EOPA activity” value in assay [1] is listed as “inhibited”.
Regarding `O=C(O)CN(CCN(CC(=O)O)CC(=O)O)CC(=O)O` [EDTA], the “sensitivity of EOPA to metalloprotease-directed agents” value in assay [2] is reported as “insensible”.
The term Ki denotes a dissociation constant, usually derived from enzyme kinetics or from competition with a known ligand. For the compound `C[C@H](NC(CCc1ccccc1)C(=O)O)C(=O)NC(C)(C)C(=O)N[C@@H](Cc1ccc(O)cc1)C(=O)Nc1ccc(C(=O)O)cc1` (stereo partly shown) [JA2], the Ki is ~0.017 µM and 0.017 µM in assay [2]; more than 0.2 µM on neurolysin (NL); 0.023 µM in assay [4]. Further, the “differentiation of the cells” value in assay [3] was “abnormal differentiation of the cells”. Besides, the neurites formation result in assay [3] was “inhibition of the neurites formation”.
`C[C@H](NC(=O)[C@H](C)NC(CCc1ccccc1)C(=O)O)C(=O)N[C@@H](Cc1ccc(O)cc1)C(=O)Nc1ccc(C(=O)O)cc1` (stereo partly shown) [cFP]: the Ki in assay [2] is approximately 0.017 µM.
`O=C(O)c1cc[c]([Hg][Cl])cc1` [p-chloromercuribenzoate (PCMB), p-chloromercuribenzoate]: the “effect of thiol agents on EOPA activity” value in assay [1] is on record as “inhibited”.

The values are drawn from patent US20090017042A1, “PROCESS FOR THE DETERMINATION OF THE PRIMARY STRUCTURE OF THE MESSENGER RNA CODING FOR THE HUMAN RECOMBINANT ENDOOLIGOPEPTIDASE A (HEOPA) [AF217798]” (priority 2002, published 2009).
